Laboratory results from patent US11034650B2, “Compounds useful for treating a Mannheimia haemolytica or Histophilus somni infection” (Intervet Inc., priority 2016, dated 2021).
Converted amounts (≈) assume the structure as drawn.

Assays:
Format in all cases: cell-based
[1] = test system: Mannheimia haemolytica MH 6357 (M7/2, reference strain, cattle infection strain); assay: MIC, broth-microdilution (CLSI VET01-A4), strain MH 6357; conditions: Mannheimia haemolytica strain MH 6357, broth-microdilution; unit assumed
Procedure, shortened: (§1)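 Read-out is unaided visual inspection for turbidity. The minimum inhibitory concentration is the lowest tested level without detectable growth across a two-fold compound series.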

[2] = test system: Mannheimia haemolytica MH 6374 (ATCC 33396, reference strain); assay: MIC, broth-microdilution (CLSI VET01-A4), strain MH 6374; conditions: Mannheimia haemolytica strain MH 6374, broth-microdilution; unit assumed
Procedure, shortened: as §1

[3] = test system: Mannheimia haemolytica MH 10720 (154, BRD field isolate); assay: MIC, broth-microdilution (CLSI VET01-A4), strain MH 10720; conditions: Mannheimia haemolytica strain MH 10720, broth-microdilution; unit assumed
Procedure, shortened: as §1

[4] = test system: Mannheimia haemolytica MH 12587 (1071, BRD field isolate, macrolide-resistance: erm+, E+); assay: MIC, broth-microdilution (CLSI VET01-A4), strain MH 12587; conditions: Mannheimia haemolytica strain MH 12587, broth-microdilution; unit assumed
Procedure, shortened: as §1

[5] = test system: Mannheimia haemolytica MH 13065 (XB0446-6003.9, BRD field isolate); assay: MIC, broth-microdilution (CLSI VET01-A4), strain MH 13065; conditions: Mannheimia haemolytica strain MH 13065, broth-microdilution; unit assumed
Procedure, shortened: as §1

[6] = test system: Mannheimia haemolytica MH 13093 (XB0472-6014.1, BRD field isolate); assay: MIC, broth-microdilution (CLSI VET01-A4), strain MH 13093; conditions: Mannheimia haemolytica strain MH 13093, broth-microdilution; unit assumed
Procedure, shortened: as §1

[7] = test system: Pasteurella multocida PM 6267 (P 2225 (L386), reference strain, mouse infection strain); assay: MIC, broth-microdilution (CLSI VET01-A4), strain PM 6267; conditions: Pasteurella multocida strain PM 6267, broth-microdilution; unit assumed
Procedure, shortened: as §1

[8] = test system: Pasteurella multocida PM 6391 (ATCC 43137, reference strain); assay: MIC, broth-microdilution (CLSI VET01-A4), strain PM 6391; conditions: Pasteurella multocida strain PM 6391, broth-microdilution; unit assumed
Procedure, shortened: as §1

[9] = test system: Pasteurella multocida PM 10775 (080130003051, BRD field isolate); assay: MIC, broth-microdilution (CLSI VET01-A4), strain PM 10775; conditions: Pasteurella multocida strain PM 10775, broth-microdilution; unit assumed
Procedure, shortened: as §1

[10] = test system: Pasteurella multocida PM 12080 (IV102277-0093, BRD field isolate); assay: MIC, broth-microdilution (CLSI VET01-A4), strain PM 12080; conditions: Pasteurella multocida strain PM 12080, broth-microdilution; unit assumed
Procedure, shortened: as §1

| Compound | MIC PM 6267 [7] | MIC PM 6391 [8] | MIC PM 10775 [9] | MIC PM 12080 [10] | MIC MH 6357 [1] | MIC MH 6374 [2] | MIC MH 10720 [3] | MIC MH 12587 [4] | MIC MH 13065 [5] | MIC MH 13093 [6] |
| --- | --- | --- | --- | --- | --- | --- | --- | --- | --- | --- |
| CC(C)(C(NC(=O)c1ccc(C#Cc2ccc(CNCc3ccco3)cc2)cc1)C(=O)NO)[N+](=O)[O-] (centres unmarked) [Compound 287] | 0.8 µg/mL (≈ 1.63 µM) | 0.4 µg/mL (≈ 0.815 µM) | ≤ 0.1 µg/mL | ≤ 0.1 µg/mL | 0.4 µg/mL (≈ 0.815 µM) | 0.8 µg/mL (≈ 1.63 µM) | ≤ 0.1 µg/mL | 1.6 µg/mL (≈ 3.26 µM) | 0.8 µg/mL (≈ 1.63 µM) | 0.8 µg/mL (≈ 1.63 µM) |
| CC(C)([C@H](NC(=O)c1ccc(C#Cc2ccc(CNCc3ccccn3)cc2)cc1)C(=O)NO)S(C)(=O)=O [C.269] | ≤ 0.1 µg/mL | ≤ 0.1 µg/mL | ≤ 0.1 µg/mL | ≤ 0.1 µg/mL | 1.6 µg/mL (≈ 2.99 µM) | 0.4 µg/mL (≈ 0.748 µM) | ≤ 0.1 µg/mL | 1.6 µg/mL (≈ 2.99 µM) | 1.6 µg/mL (≈ 2.99 µM) | 0.8 µg/mL (≈ 1.5 µM) |
| CC(C)([C@H](NC(=O)c1ccc(C#Cc2ccc(CNCc3ccccn3)nc2)cc1)C(=O)NO)S(C)(=O)=O [Compound 353] | 3.1 µg/mL (≈ 5.79 µM) | 1.6 µg/mL (≈ 2.99 µM) | 0.4 µg/mL (≈ 0.747 µM) | 0.8 µg/mL (≈ 1.49 µM) | 3.1 µg/mL (≈ 5.79 µM) | 6.3 µg/mL (≈ 11.8 µM) | 0.8 µg/mL (≈ 1.49 µM) | 12.5 µg/mL (≈ 23.3 µM) | 6.3 µg/mL (≈ 11.8 µM) | 6.3 µg/mL (≈ 11.8 µM) |
| CC(C)(O)[C@H](NC(=O)c1ccc(C#Cc2ccc(CNCc3ccccc3)cc2)cc1)C(=O)NO [Compound 223] | ≤ 0.1 µg/mL | ≤ 0.1 µg/mL | ≤ 0.1 µg/mL | ≤ 0.1 µg/mL | 0.8 µg/mL (≈ 1.7 µM) | 0.4 µg/mL (≈ 0.848 µM) | ≤ 0.1 µg/mL | 0.8 µg/mL (≈ 1.7 µM) | 0.4 µg/mL (≈ 0.848 µM) | 0.4 µg/mL (≈ 0.848 µM) |
| CSC(C)(C)[C@H](NC(=O)c1ccc(C#Cc2ccc(CN3CCOCC3)s2)cc1)C(=O)NO [Compound 303] | 1.6 µg/mL (≈ 3.28 µM) | 0.4 µg/mL (≈ 0.82 µM) | ≤ 0.1 µg/mL | 0.4 µg/mL (≈ 0.82 µM) | 0.2 µg/mL (≈ 0.41 µM) | 1.6 µg/mL (≈ 3.28 µM) | 0.4 µg/mL (≈ 0.82 µM) | 1.6 µg/mL (≈ 3.28 µM) | 1.6 µg/mL (≈ 3.28 µM) | 1.6 µg/mL (≈ 3.28 µM) |
| CC[C@H](C)[C@H](NC(=O)c1ccc(C#Cc2ccc(CNC3CCC3)cc2)cc1)C(=O)NO [Compound 197] | ≤ 0.1 µg/mL | 0.4 µg/mL (≈ 0.923 µM) | ≤ 0.1 µg/mL | 0.2 µg/mL (≈ 0.461 µM) | 1.6 µg/mL (≈ 3.69 µM) | 3.1 µg/mL (≈ 7.15 µM) | 0.4 µg/mL (≈ 0.923 µM) | 6.3 µg/mL (≈ 14.5 µM) | 1.6 µg/mL (≈ 3.69 µM) | 3.1 µg/mL (≈ 7.15 µM) |

The next lines start with results.

| MIC PM 6267 [7] | MIC PM 6391 [8] | MIC PM 10775 [9] | MIC PM 12080 [10] | Compound | MIC MH 6357 [1] | MIC MH 6374 [2] | MIC MH 10720 [3] | MIC MH 12587 [4] | MIC MH 13065 [5] | MIC MH 13093 [6] |
| --- | --- | --- | --- | --- | --- | --- | --- | --- | --- | --- |
| 50 µg/mL (≈ 110 µM) | 0.8 µg/mL (≈ 1.75 µM) | 3.1 µg/mL (≈ 6.79 µM) | 1.6 µg/mL (≈ 3.5 µM) | CC(=O)C(NC(=O)c1ccc(C#Cc2ccc(CNCc3ccncc3)cc2)cc1)C(=O)NO (centres unmarked) [Compound 402] | 6.3 µg/mL (≈ 13.8 µM) | 12.5 µg/mL (≈ 27.4 µM) | 6.3 µg/mL (≈ 13.8 µM) | 1.6 µg/mL (≈ 3.5 µM) | 6.3 µg/mL (≈ 13.8 µM) | 6.3 µg/mL (≈ 13.8 µM) |
| 25 µg/mL (≈ 54.8 µM) | 0.2 µg/mL (≈ 0.438 µM) | 1.6 µg/mL (≈ 3.5 µM) | 0.8 µg/mL (≈ 1.75 µM) | CC(=O)C(NC(=O)c1ccc(C#Cc2ccc(CNCc3cccnc3)cc2)cc1)C(=O)NO (centres unmarked) [Compound 407] | 3.1 µg/mL (≈ 6.79 µM) | 6.3 µg/mL (≈ 13.8 µM) | 6.3 µg/mL (≈ 13.8 µM) | 1.6 µg/mL (≈ 3.5 µM) | 6.3 µg/mL (≈ 13.8 µM) | 6.3 µg/mL (≈ 13.8 µM) |
| 6.3 µg/mL (≈ 14.1 µM) | ≤ 0.1 µg/mL | 0.8 µg/mL (≈ 1.8 µM) | 0.4 µg/mL (≈ 0.898 µM) | CC(=O)C(NC(=O)c1ccc(C#Cc2ccc(CNCc3ccco3)cc2)cc1)C(=O)NO (centres unmarked) [Compound 410] | 0.8 µg/mL (≈ 1.8 µM) | 1.6 µg/mL (≈ 3.59 µM) | 1.6 µg/mL (≈ 3.59 µM) | 0.4 µg/mL (≈ 0.898 µM) | 1.6 µg/mL (≈ 3.59 µM) | 1.6 µg/mL (≈ 3.59 µM) |
| 25 µg/mL (≈ 61.4 µM) | 0.2 µg/mL (≈ 0.491 µM) | 3.1 µg/mL (≈ 7.61 µM) | 3.1 µg/mL (≈ 7.61 µM) | CCCNCc1ccc(C#Cc2ccc(C(=O)N[C@@H](C(C)=O)C(=O)NO)cc2)cc1 [Compound 406] | 12.5 µg/mL (≈ 30.7 µM) | 25 µg/mL (≈ 61.4 µM) | 6.3 µg/mL (≈ 15.5 µM) | 1.6 µg/mL (≈ 3.93 µM) | 25 µg/mL (≈ 61.4 µM) | 12.5 µg/mL (≈ 30.7 µM) |
| 0.4 µg/mL (≈ 0.785 µM) | 0.4 µg/mL (≈ 0.785 µM) | ≤ 0.1 µg/mL | 0.2 µg/mL (≈ 0.392 µM) | CSC(C)(C)[C@H](NC(=O)c1ccc(C#Cc2ccc(CNCc3ncccn3)s2)cc1)C(=O)NO [Compound 366] | 0.8 µg/mL (≈ 1.57 µM) | 0.8 µg/mL (≈ 1.57 µM) | 0.2 µg/mL (≈ 0.392 µM) | 1.6 µg/mL (≈ 3.14 µM) | 0.8 µg/mL (≈ 1.57 µM) | 1.6 µg/mL (≈ 3.14 µM) |
